From US7744867B2, “PTPase inhibitors and method of using same” (The Cleveland Clinic Foundation, priority 2001, dated 2010)

Key:
[1] = target: T1, MKP1 (GST fusion protein) (Homo sapiens, UniProt P28562); experiment: In vitro PTPase assay, dephosphorylation of a synthetic phosphotyrosine peptide; format: biochemical
T1 construct: made in house; host or cells: E. coli DH5a
Experimental: In vitro PTPase activities were measured using the commercial protein tyrosine phosphatase assay kit (UBI) following established procedure. This assay measures the in vitro dephosphorylation of a synthetic phosphotyrosine peptide (R-R-L-I-E-D-A-E-pY-A-A-R-G). Briefly, 0.01 μg of GST/PTPase fusion protein was incubated in 50 μl of Tris buffer (10 mM Tris, pH 7.4) containing different concentrations of inhibitors or chemicals (0 to 1,000 μg/ml) at 22° C. for 10 minutes, followed by addition of 0.2 mM of the phosphotyrosine peptide and incubation at 22° C. for […]. 100 μl of Malachite Green solution was added and incubated for 5 minutes, and the absorbance at 660 nm was measured after 5 minutes.

[2] = system: WM9 human melanoma xenografts; experiment: Xenografts of human melanoma in nude mice, tumor volume; format: in vivo; conditions: day 25, IFNα 500,000 U s.c. daily, sodium stibogluconate 12 mg Sb s.c. daily
Description: FIG. 11 illustrates that sodium stibogluconate appears to synergize with IFNα against WM9 human melanoma tumors in nude mice. IFNα or both on the growth of xenografts of human melanoma cell line WM9 and human prostate carcinoma cell line DU-145 in athymic nude mice. Nude mice of 4 weeks old were inoculated subcutaneously (s.c.) with WM9 human melanoma cells (3×10^6 cells/site) (A) or DU-145 human prostate cancer cells (2×10^6 cells/site) (B) on day 0. Starting on day 2, the mice were subjected to no treatment (Control) or treatment with IFNα (500,000 U, s.c., daily), sodium stibogluconate (12 mg, s.c., daily) or both (Combo). Tumor volume in the nude mice (4 mice/group, 2 tumors/mouse) was measured on the days as indicated. Tumor volume was calculated by the equation: (length×width^2)/2 to compare tumor growth rates. All mice survived by the end of the experiment. […]
For each of the cell lines, each of 16 mice received subcutaneous injection at the chest area of 3×10^6 cells/site (WM9) or 2×10^6 cells/site (DU145), two sites/mouse, on day 0. […] Tumor size was measured with a caliper to determine the two perpendicular diameters of each tumor. Tumor volume was calculated using the method of the NCI (length×width^2 in millimeters/2=volume in cubic millimeters). […]

T1 sequence (P28562 whole entry, species assumed, the tested form may be a part): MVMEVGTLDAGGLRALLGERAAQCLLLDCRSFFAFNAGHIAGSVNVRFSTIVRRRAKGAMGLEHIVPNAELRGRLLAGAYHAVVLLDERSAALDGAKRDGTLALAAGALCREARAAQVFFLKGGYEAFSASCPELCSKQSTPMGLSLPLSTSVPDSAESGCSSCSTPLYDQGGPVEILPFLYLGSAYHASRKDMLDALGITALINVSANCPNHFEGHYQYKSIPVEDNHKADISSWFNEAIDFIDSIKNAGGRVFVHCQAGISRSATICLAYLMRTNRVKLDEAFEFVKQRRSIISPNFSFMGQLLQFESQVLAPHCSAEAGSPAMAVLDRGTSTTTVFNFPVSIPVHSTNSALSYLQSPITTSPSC

Compound: O.O.O.O.O.O.O.O.O.O=C([O-])[C@@H]1[O][Sb]2([O-])([O][Sb]34([OH])[O][C@H]([C@H](O)CO)[C@H]([O]3)[C@H](C(=O)[O-])[O]4)[O][C@H]([C@H](O)CO)[C@@H]1[O]2.[Na+].[Na+].[Na+] [sodium stibogluconate]
- inhibitory activity against MKP1 [1]: no obvious inhibitory activity

Compound: IFNα
- average tumor volume, of the control group [2]: approximately 40%
